System: miR-21
Test: Gel-retardation assay, hybridization with miR-21
Format: binding
Settings: 37 °C, 45 min, mean of 3
Description: We carried out a comparative analysis of the hybridization properties of the developed DCs with the corresponding SCs, which were the products of the first stage of the DCs synthesis. As discussed above, each SC consisted of the corresponding oligonucleotide A, which was complementary to the 5′-region of the matching miRNA target, and the catalytic peptide [LRLRG]2, attached to the 5′-end of this oligonucleotide via a thiohexyl linker (linker 2). […] Indeed, the level of binding of DCs to their miRNA targets reached 96, 90, 75, 55% at equimolar concentration (1 μM), and 99, 96, 92 and 69% at 5-fold excess of DCs over miR-17, miR-18a, miR-21 and miR-155, respectively (Figure 2). […]
The reaction mixture (4 µL) containing 50 mM Tris-HCl, pH 7.0, 200 mM KCl and 1 mM EDTA, 100 cpm (Cherenkov’s counting) of [^32P]-miRNA, 1 μM unlabeled miRNA, a conjugate at a concentration ranging from 0.1 to 10 μM was incubated at 37 °C for 45 min and quenched by adding of a loading buffer (20% ficoll, 0.025% bromophenol blue, 0.025% xylene cyanol). […] Formation of the complex miRNA/conjugate was analyzed by electrophoresis in 15% native PAAG at 4 °C. The gels were analyzed using Molecular Imager FX. The extent of binding of conjugate to miRNA was determined as a ratio of radioactivity measured in the complex to the total radioactivity applied onto the gel lane.

TCAACATC–linker 1–[GRLRL]2–linker 2–GATAAGCTA [miRNA-21-DC, Dual oligonucleotide-peptide conjugate targeted to miR-21: catalytic peptide [LRLRG]2 between two 2-aminoadenine-containing oligodeoxyribonucleotides]
level of binding of DC to miRNA target (5-fold excess of DC over miRNA (1 µM), same buffer): 92%
level of binding of DC to miRNA target (equimolar, DC 1 µM : miRNA 1 µM, 50 mM Tris-HCl pH 7.0, 200 mM KCl, 1 mM EDTA): 75%

Reference: PMC7287882, “Dual miRNases for Triple Incision of miRNA Target: Design Concept and Catalytic Performance” (Molecules, 2020)
